Source: PMC2666327 (Chembiochem : a European journal of chemical biology, 2008)

Biological target: T1, Type I Ins(1,4,5)P3 5-phosphatase (Homo sapiens, UniProt Q14642)
T1 sequence (Q14642 1-412 limits assumed): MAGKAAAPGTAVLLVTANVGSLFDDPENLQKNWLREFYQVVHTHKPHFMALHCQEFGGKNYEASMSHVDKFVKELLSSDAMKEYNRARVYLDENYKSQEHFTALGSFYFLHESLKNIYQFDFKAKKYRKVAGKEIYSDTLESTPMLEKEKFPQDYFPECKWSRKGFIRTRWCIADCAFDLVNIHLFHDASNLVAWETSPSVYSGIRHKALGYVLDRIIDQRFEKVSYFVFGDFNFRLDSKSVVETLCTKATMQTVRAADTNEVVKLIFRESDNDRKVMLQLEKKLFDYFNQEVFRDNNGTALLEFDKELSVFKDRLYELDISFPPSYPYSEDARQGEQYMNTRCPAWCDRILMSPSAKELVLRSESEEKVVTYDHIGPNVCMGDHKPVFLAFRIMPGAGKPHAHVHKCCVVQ
Assay: [3H]Ins
Format: biochemical

Work on `O=P(O)(O)Oc1ccc(OP(=O)(O)O)c(OP(=O)(O)O)c1OCc1ccccc1` [compound 30, 3-benzyloxybenzene 1,2,4-trisphosphate] yielded an IC50 of 68 ± 16 µM.
